In US11883680B2, “Method and apparatus for tightening skin and other tissues” (The General Hospital Corporation, priority 2016, dated 2024):

Tested on: human skin
Assay: mechanical testing of skin sample sites with a tensiometer (elastic modulus, peak load)
Conditions: fully treated (full thickness needling + 0.1% Rose Bengal in saline + green light LED array) vs untreated and needled-only skin
Description: Additionally, mechanical testing was performed on sample sites using a tensiometer to measure elastic modulus before and after treatment. The elastic modulus and peak load were recorded on samples that were (1) untreated (2) partially treated (needled only), and (3) fully treated (needled plus agent application and irradiation). Full treatment included full thickness needling of the skin surface followed by application of a 0.1% solution of Rose Bengal in saline and irradiation with a multi-light-emitting LED diode array that delivered green light to the sample surface.

With O=C([O-])c1c(Cl)c(Cl)c(Cl)c(Cl)c1-c1c2cc(I)c(=O)c(I)c-2oc2c(I)c([O-])c(I)cc12.[Na+].[Na+] [Rose Bengal] as the molecule, how does the “increase in peak load” value read?
The value was “three-fold”.

And the “increase in the elastic modulus” value?
The value was “five-fold”.
